Ends that are not written are not given here.
These sequences were tested against HLA-A03:01 (Homo sapiens, UniProt P04439) (assay: IC50 in vitro measurement, peptide exchange assay with fluorescence anisotropy).

Sequence | IC50
KLILWRGLK [NCAPG2^P333L] | 202.9 ± 1.03 nM
KPILWRGLK [NCAPG2^WT] | 4490 nM
RLFLGLAIK [KIF2C^P13L] | 237.4 ± 2 nM
RLFPGLAIK [KIF2C^WT] | 146.2 ± 1.1 nM

The sequences below were run against HLA-B27:05 (Homo sapiens, UniProt P01889, D138H/D201E/E176V/E204Q/G107R/H137Y/K202T/N104T/N87E/Q56L/Q94K/R106L/R155S/R180L/S101D/S121N/S48T/Y140D/Y33H/Y91C) in the same assay as above.
Assay type: binding

Sequence | IC50
GRIAFFLKY [SYTL4^S363F] | 214.7 ± 1.8 nM
GRIAFSLKY [SYTL4^WT] | 97.3 ± 2.1 nM

Reference: PMC8438848 (Journal for Immunotherapy of Cancer, 2021)
